Results on 22 compounds are retold here after patent US9394331B2, “2′-spiro-nucleosides and derivatives thereof useful for treating hepatitis C virus and dengue virus infections” (priority 2010, dated 2016).

One data set concerns HCV replicon. As to the kind of experiment: HCV replicon assay (Clone A cells and ET-lunet cells, HCV RNA by real time PCR). Type of data set: cell-based, hepatitis C virus. The conditions noted are these: for EC90: read-out: EC90, anti-HCV 1b activity. The procedure:
HCV replicon assay. HCV replicon assays using Clone A cells and ET-lunet cells were performed as described previously. L. J. Stuyver et al. Antimicrob. Agents Chemother. 2004, 48, 651-654. Briefly, Clone A cells and ET-lunet cells were seeded at a density of 1500 and 3000 cells per well in a 96-well plate, respectively. Test compounds serially diluted in culture medium without G418 were added to cells. Plates were incubated at 37° C. in a 5% CO2 atmosphere for 4 days. Inhibition of HCV RNA replication was determined by quantitative real time PCR. See, e.g., L. J. Stuyver et al. Antiviral Chem. Chemother. 2006, 17, 79-87.
To express the antiviral effectiveness of a compound, the threshold RT-PCR cycle of the test compound was subtracted from the average threshold RT-PCR cycle of the no-drug control (ΔCtHCV). A ΔCt of 3.3 equals a 1-log 10 reduction (equal to the 90% effective concentration [EC90]) in replicon RNA levels. The cytotoxicity of the test compound could also be expressed by calculating the ΔCtrRNA values. The ΔΔCt specificity parameter could then be introduced (ΔCtHCV-ΔCtrRNA), in which the levels of HCV RNA are normalized for the rRNA levels and calibrated against the no-drug control.

Data set [1] has as its system Dengue 2 strain New Guinea C. Put plainly: Dengue CPE assay. It counts as cell-based, Dengue virus 2. The conditions noted are these: Table 6, BHK-21 cells, 3 days, 50% cells surviving, read-out: EC50, activity against dengue virus. The procedure:
Dengue CPE Assay. To measure cytopathic effect of Dengue virus 2, BHK-21 ([…], CCL-10 ATCC Manassas, Va.) cells were seeded at a density of 20,000 cells/well in a 96-well black/clear bottom plates (Becton Dickinson, Franklin Lakes, N.J.) one day prior to start of the assay and allowed to attach overnight in EMEM (ATCC Manassas, Va.) +10% FBS (Invitrogen, Carlsbad, Calif.) at 37° C. in a humidified 5% CO2 atmosphere. The next day, the medium was removed and the cells were infected with Dengue 2 strain New Guinea C (VR-1584, ATCC Manassas, Va.) at an MOI of 0.08 pfu/cell for two hours in 50 μL EMEM+2% FBS. For both the single point and dose response assays, compounds (2× concentration) were diluted in EMEM+2% FBS and 50 μL was added to infected cells without removing virus. Cells were incubated for 3 days at 37° C. in a humidified 5% CO2 atmosphere. The medium was aspirated and 50 μL of CellTiter-Glo (Promega, Madison, Wis.) was added to each well and read for 0.1 seconds on a Perkin Elmer Victor3 (Waltham, Mass.) plate reader. Percent survival was determined by subtracting the average value of infected control wells and normalizing to the non-infected wells. The effective concentration was calculated from the dose response data by forecasting 50% cells surviving with drug treatment.

Data set [2] can be described thus: Cytotoxicity reported with the dengue assay. It counts as cell-based. The conditions noted are these: Table 6; cell line not stated.
The nature of data set [3]: Cell cytotoxicity assay (MTS). It counts as cell-based. The conditions noted are these: human. The protocol: Cell cytotoxicity assays. Each compound (serially diluted from 100 μM) was added to Huh7 (2×10^3 cells/well), HepG2 (2×10^3 cells/well), BxPC3 (2×10^3 cells/well), or CEM (5×10^3 cells/well) cells and allowed to incubate for 8 days at 37° C. A medium only control was used to determine the minimum absorbance value […]. At the end of the growth period, MTS dye from the CellTiter 96 Aqueous One Solution Cell Proliferation Assay kit (Promega) was added to each well and the plate was incubated for an additional 2 hours. The absorbance at 490 nm was read with a Victor3 plate reader (Perkin Elmer) using the medium only control wells as blanks. The 50% inhibition value (CC50) was determined by comparing the absorbance in wells containing cells and test compound to untreated cell control wells.

[4] abbreviates: Hepatitis C virus, 96 h, Table 1, HCV replicon, 4 days, read-out: EC50, anti-HCV activity of selected nucleosides.
The mark [5] stands for this setting: Hepatitis C virus, Table 2, HCV 1b replicon, unit inferred, read-out: EC50, anti-HCV 1b activity.
The mark [6] stands for this setting: Hepatitis C virus, 96 h, Table 4, cyclic phosphates, diastereomeric mixtures, read-out: EC50, anti-HCV 1b activity.
The mark [7] stands for this setting: Hepatitis C virus, 96 h, Table 4, cyclic phosphates, diastereomeric mixtures.

pEC50: −log10 of the molar value. Like-named read-outs stand apart in the source and are kept apart here. Where only a bound is given, the exact number is not on record here.

`O=c1ccn([C@@H]2O[C@H](CO)[C@@H](O)[C@@]23CCCO3)c(=O)[nH]1` [compound 32, 1-((5 S,6R,8R,9R)-9-hydroxy-8-(hydroxymethyl)-1,7-dioxaspiro[4.4]nonan-6-yl)pyrimidine-2,4(1H,3H)-dione]: the pEC50 in the data set with HCV replicon (setting [4]) was less than 4.00.

For `O=c1ccn([C@@H]2O[C@H](CO)[C@@H](O)[C@@]23CCO3)c(=O)[nH]1` [compound 36, 1-((4S,5R,7R,8R)-8-hydroxy-7-(hydroxymethyl)-1,6-dioxaspiro[3.4]octan-5-yl)pyrimidine-2,4(1H,3H)-dione], in the data set on HCV replicon (setting [4]), the pEC50 was less than 4.00.

For the compound `O=c1ccn([C@@H]2O[C@H](CO)[C@@H](O)[C@]23CCCO3)c(=O)[nH]1` [compound 44, 1-((5R,6R,8R,9R)-9-hydroxy-8-(hydroxymethyl)-1,7-dioxaspiro[4.4]nonan-6-yl)pyrimidine-2,4(1H,3H)-dione], the negative logarithm of the EC50 (pEC50) with HCV replicon (setting [4]) was less than 4.00.

As for `O=c1ccn([C@@H]2O[C@H](CO)[C@@H](O)[C@]23CCO3)c(=O)[nH]1` [compound 48, 1-((4R,5R,7R,8R)-8-hydroxy-7-(hydroxymethyl)-1,6-dioxaspiro[3.4]octan-5-yl)pyrimidine-2,4(1H,3H)-dione], the pEC50 in the data set on HCV replicon (setting [4]) is less than 4.00.

In the case of `Nc1ccn([C@@H]2O[C@H](CO)[C@@H](O)[C@]23CCCO3)c(=O)n1` [compound 49, 4-amino-1-((5R,6R,8R,9R)-9-hydroxy-8-(hydroxymethyl)-1,7-dioxaspiro[4.4]nonan-6-yl)pyrimidin-2(1H)-one], in the data set with HCV replicon (setting [4]), the pEC50 was less than 4.00.

In the case of `Nc1ccn([C@@H]2O[C@H](CO)[C@@H](O)[C@@]23CCCO3)c(=O)n1` [compound 50, 4-amino-1-((5S,6R,8R,9R)-9-hydroxy-8-(hydroxymethyl)-1,7-dioxaspiro[4.4]nonan-6-yl)pyrimidin-2(1H)-one], the pEC50 in the data set on HCV replicon (setting [4]) was less than 4.00.

As for `Nc1ccn([C@@H]2O[C@H](CO)[C@@H](O)[C@@]23CCO3)c(=O)n1` [compound 51, 4-amino-1-((4S,5R,7R,8R)-8-hydroxy-7-(hydroxymethyl)-1,6-dioxaspiro[3.4]octan-5-yl)pyrimidin-2(1H)-one], the pEC50 with HCV replicon (setting [4]) is less than 4.00.

Consider `Nc1ccn([C@@H]2O[C@H](CO)[C@@H](O)[C@]23CCO3)c(=O)n1` [compound 52, 4-amino-1-((4R,5R,7R,8R)-8-hydroxy-7-(hydroxymethyl)-1,6-dioxaspiro[3.4]octan-5-yl)pyrimidin-2(1H)-one], for which, in the data set on HCV replicon (setting [4]), the negative logarithm of the EC50 (pEC50) is less than 4.26.

`COc1nc(N)nc2c1ncn2[C@@H]1O[C@H](CO)[C@@H](O)[C@@]12CCCO2` [compound 62, (5S,6R,8R,9R)-6-(2-amino-6-methoxy-9H-purin-9-yl)-8-(hydroxymethyl)-1,7-dioxaspiro[4.4]nonan-9-ol]: the pEC50 in the data set on HCV replicon (setting [4]) is less than 4.70.

`COc1nc(N)nc2c1ncn2[C@@H]1O[C@H](CO)[C@@H](O)[C@@]12CCO2` [compound 66, (4S,5R,7R,8R)-5-(2-amino-6-methoxy-9H-purin-9-yl)-7-(hydroxymethyl)-1,6-dioxaspiro[3.4]octan-8-ol]: the negative-log EC50 (pEC50) with HCV replicon (setting [4]) is less than 4.70.

Consider `COc1nc(N)nc2c1ncn2[C@@H]1O[C@H](CO)[C@@H](O)[C@]12CCCO2` [compound 72, (5R,6R,8R,9R)-6-(2-amino-6-methoxy-9H-purin-9-yl)-8-(hydroxymethyl)-1,7-dioxaspiro[4.4]nonan-9-ol], for which the pEC50 with HCV replicon (setting [4]) is less than 4.70.

Turning to `COc1nc(N)nc2c1ncn2[C@@H]1O[C@H](CO)[C@@H](O)[C@]12CCO2` [compound 76, (4R,5R,7R,8R)-5-(2-amino-6-methoxy-9H-purin-9-yl)-7-(hydroxymethyl)-1,6-dioxaspiro[3.4]octan-8-ol], the negative-log EC50 (pEC50) in the data set with HCV replicon (setting [4]) was less than 4.00.

Turning to `Nc1nc2c(ncn2[C@@H]2O[C@H](CO)[C@@H](O)[C@]23CCO3)c(=O)[nH]1` [compound 77, 2-amino-9-((4R,5R,7R,8R)-8-hydroxy-7-(hydroxymethyl)-1,6-dioxaspiro[3.4]octan-5-yl)-1H-purin-6(9H)-one], the negative logarithm of the EC50 (pEC50) with HCV replicon (setting [4]) is less than 4.70.

Consider `COC(=O)[C@H](C)NP(=O)(OC[C@H]1O[C@@H](n2cnc3c(OC)nc(N)nc32)[C@@]2(CCO2)[C@@H]1O)Oc1ccccc1` (stereo partly drawn) [compound 113, (2S)-methyl 2-(((((4R,5R,7R,8R)-5-(2-amino-6-methoxy-9H-purin-9-yl)-8-hydroxy-1,6-dioxaspiro[3.4]octan-7-yl)methoxy)(phenoxy)phosphoryl)amino)propanoate], for which the pEC50 in the data set with HCV replicon (setting [5]) was 5.81; in data set [1] (Dengue virus, BHK-21, 72 h) it was 5.21. The same compound came in with a CC50 in data set [2] of more than 20 µM.

As for `COC(=O)[C@H](C)NP(=O)(OC[C@H]1O[C@@H](n2ccc(=O)[nH]c2=O)[C@]2(CCCO2)[C@@H]1O)Oc1ccccc1` (stereo partly drawn) [compound 114, (2S)-methyl 2-(((((5S,6R,8R,9R)-6-(2,4-dioxo-3,4-dihydropyrimidin-1 (2H)-yl)-9-hydroxy-1,7-dioxaspiro[4.4]nonan-8-yl)methoxy)(phenoxy)phosphoryl)amino)propanoate], the pEC50 with HCV replicon (setting [5]) is 4.69.

Take `COC(=O)[C@H](C)NP(=O)(OC[C@H]1O[C@@H](n2ccc(=O)[nH]c2=O)[C@]2(CCO2)[C@@H]1O)Oc1ccccc1` (stereo partly drawn) [compound 115, (2S)-methyl 2-(((((4S,5R,7R,8R)-5-(2,4-dioxo-3,4-dihydropyrimidin-1 (2H)-yl)-8-hydroxy-1,6-dioxaspiro[3.4]octan-7-yl)methoxy)(phenoxy)phosphoryl)amino)propanoate]: in the data set with HCV replicon (setting [5]), the negative-log EC50 (pEC50) was 4.55.

Consider `COC(=O)[C@H](C)NP(=O)(OC[C@H]1O[C@@H](n2ccc(=O)[nH]c2=O)[C@@]2(CCCO2)[C@@H]1O)Oc1ccccc1` (stereo partly drawn) [compound 116, (2S)-methyl 2-(((((5R,6R,8R,9R)-6-(2,4-dioxo-3,4-dihydropyrimidin-1 (2H)-yl)-9-hydroxy-1,7-dioxaspiro[4.4]nonan-8-yl)methoxy)(phenoxy)phosphoryl)amino)propanoate], for which the negative logarithm of the EC50 (pEC50) in the data set on HCV replicon (setting [5]) is 4.55.

With `COC(=O)[C@H](C)NP(=O)(OC[C@H]1O[C@@H](n2ccc(=O)[nH]c2=O)[C@@]2(CCO2)[C@@H]1O)Oc1ccccc1` (stereo partly drawn) [compound 117, (2S)-methyl 2-(((((4R,5R,7R,8R)-5-(2,4-dioxo-3,4-dihydropyrimidin-1 (2H)-yl)-8-hydroxy-1,6-dioxaspiro[3.4]octan-7-yl)methoxy)(phenoxy)phosphoryl)amino)propanoate], the negative logarithm of the EC50 (pEC50) with HCV replicon (setting [5]) was 4.78.

In the case of `COc1nc(N)nc2c1ncn2C1OC(COP(=O)(N[C@@H](C)C(=O)OC(C)C)Oc2ccccc2)[C@@H](O)[C@]12CCO2` (stereo partly shown) [compound 118], the negative logarithm of the EC50 (pEC50) in the data set on HCV replicon (Table 3, HCV 1b replicon, read-out: EC50, anti-HCV 1b activity) is 5.83; in data set [1], 5.30. Besides, in the data set with HCV replicon (Table 3, HCV 1b replicon), the concentration for an effect of 90% (EC90) amounted to 3.44 µM. The cytotoxic concentration (CC50) at 8 days in data set [3] (Table 3, cell line not stated, read-out: CC50) is more than 20 µM. The CC50 in data set [2] was more than 20 µM.

In the case of `COc1nc(N)nc2c1ncn2C1OC2COP(=O)(OCC(C)(C)C)O[C@H]2[C@]12CCO2` (stereo partly shown) [compound 132], the pEC50 in the data set with HCV replicon (setting [6]) is less than 4.70. In the data set on HCV replicon (setting [7]), the 90% effect concentration (EC90) is more than 20 µM. The compound also registered a CC50 at 8 days in data set [3] of more than 20 µM.

On to `COc1nc(N)nc2c1ncn2C1OC2COP(=O)(OC(C)C)O[C@H]2[C@]12CCO2` (stereo partly shown) [compound 133], for which the pEC50 in the data set on HCV replicon (setting [6]) was less than 4.70. The EC90 in the data set with HCV replicon (setting [7]) is more than 20 µM. For the same compound, the CC50 at 8 days in data set [3] was more than 20 µM.

As for `COc1nc(N)nc2c1ncn2C1OC2COP(=O)(OC3CCCC3)O[C@H]2[C@]12CCO2` (stereo partly shown) [compound 134], in the data set with HCV replicon (setting [7]), the 90% effect concentration (EC90) was more than 20 µM. The negative logarithm of the EC50 (pEC50) with HCV replicon (Hepatitis C virus, Table 4, cyclic phosphates, diastereomeric mixtures, read-out: EC50, anti-HCV 1b activity) is 4.85. Besides, the cytotoxic concentration (CC50) at 8 days in data set [3] was more than 20 µM.

The term pEC50 denotes the EC50 on a negative log10 scale, so that one unit is a factor of ten. The term CC50 denotes the concentration that lowers cell viability or growth by half. The term EC90 denotes the concentration needed for an effect of 90%.
